Reference: patent US9296694B2, “Azacyclic compounds” (ACADIA Pharmaceuticals Inc., priority 2000, dated 2016)
“Also recorded” adds a separate entry of the source. Structures can show the parent of a compound that is named as a salt.

Tests used:
5-HT2A receptor = molecular target: T1, 5-HT2A receptor (Homo sapiens, UniProt P28223); assay: Receptor Selection and Amplification (R-SAT) assay, 5-HT2A inverse agonism; type: cell-based; conditions: for Percent Efficacy: compared to ritanserin
T1 construct: expressed in transfected cells; host or cells: NIH3T3 (mouse fibroblasts), pSI expression vector
Description: Briefly, NIH3T3 cells were grown in 96 well tissue culture plates to 70-80% confluence. Cells were transfected for 12-16 hours with plasmid DNAs using superfect (Qiagen Inc.) as per manufacture's protocols. R-SAT's were generally performed with 50 ng/well of receptor and 20 ng/well of Beta-galactosidase plasmid DNA. […] Large-scale transfections, cells were transfected for 12-16 hours, then trypsinized and frozen in DMSO. Frozen cells were later thawed, plated at 10,000-40,000 cells per well of a 96 well plate that contained drug. With both methods, cells were then grown in a humidified atmosphere with 5% ambient CO2 for five days. Media was then removed from the plates and marker gene activity was measured by the addition of the beta-galactosidase substrate ONPG (in PBS with 5% NP-40). […] All data were analyzed using the computer program XLFit (IDBSm).

[1] = system: DOI-induced head twitches in mice; assay: Observation for head twitches in DOI-treated mice; type: in vivo; conditions: for MED (minimum effective dose in vivo): statistically significant reduction in head twitching score, DOI-treated mice, 0.1-30 mg/kg subcutaneous injection
Description: (§1) Instruments) were used for rat experiments (details on startle apparatus and measures, see Male Non-Swiss Albino mice and male Sprague-Dawley rats (Harlan Sprague-Dawley) were housed (4 mice/cage; 2 rats/cage) in rooms with temperature and humidity controlled and water and food (Harlan Teklad) freely available. Mice were kept on a 12-hr light:dark cycle, whereas rats were kept on a 12-hr reverse light:dark cycle. For locomotor and observation experiments in mice, plastic 20×20×30 cm activity cages were equipped with photocell beams (AccuScan Instruments). Startle chambers (San Diego Instruments) were used for rat experiments (for details on startle apparatus and measures, see Mansbach et al., (1988) Psychopharmacology 94:507-14).
Mice were treated with 2.5 mg/kg DOI i.p. Five min later, mice were treated with AC-90179 s.c. and placed into activity cages. Ten min later, mice were observed using a repeated sampling technique. […] Each dose combination was tested in a separate group of animals (n=8) and the experimenter was blind to drug conditions. Head twitch scores were averaged followed by analysis of variance (ANOVA) and post-hoc Dunnett's t-test comparisons.
The effect of various compounds on head twitch behavior in mice treated with DOI was observed as described in Example 139. Animals received 0.1-30 mg/kg of the compound indicated via subcutaneous injection. MED indicates the minimum effective dose at which a statistically significant reduction in head twitching score (described above) was observed. MED=minimum effective dose in vivo.

[2] = system: locomotor activity of mice (dizocilpine- or d-amphetamine-induced hyperactivity, spontaneous activity); assay: Locomotor activity in mice; type: in vivo; conditions: for distance traveled (average): i.p., 15 min
Description: as §1
For hyperactivity experiments, mice were treated with 0.3 mg/kg dizocilpine or 3.0 mg/kg d-amphetamine i.p. 15 min before the session. Five minutes after the pretreatment, mice were treated with AC-90179 s.c. and placed into the activity cages. For spontaneous activity, AC-90179 was administered alone. Locomotor data were collected during a 15 min session without habituation in a lit room. Each dose combination was tested in a separate group of animals (n=8). Distance traveled (cm) was calculated and averaged followed by ANOVA and post-hoc Dunnett's t-test comparisons.

[3] = system: acoustic startle and prepulse inhibition in rats; assay: Startle testing, prepulse inhibition (PPI) in rats; type: in vivo
Description: as §1
Rats were tested and groups (n=10) matched for levels of startle reactivity and prepulse inhibition (PPI; see Mansbach et al., (1988) Psychopharmacology 94:507-14). Two days later, test sessions started and consisted of a 5-min acclimation period with a constant background noise (65 dB), followed by 60 presentations of acoustic stimuli to measure acoustic startle responses. The 60 trials consisted of: twenty two 40-ms presentations of a 120 dB broadband pulse, ten 20-ms presentations of each prepulse intensity (68, 71, 77 dB) 100 ms prior to a 40-msec presentation of a 120 dB broadband pulse, and 8 NOSTIM trials in which no stimuli were delivered in order to assess general motor activation in the rats. Thirty min before testing, rats were treated with sterile water (s.c.), risperidone (1.0 mg/kg, i.p.), or AC-90179 (s.c.). Five min later, rats were administered DOI (0.5 mg/kg, s.c.) or 0.9% saline (s.c.). One-week later, rats were administered the same pretreatment drug or vehicle and crossed over to receive the treatment opposite to that they received the previous week. Startle magnitudes and percent PPI for the three prepulse intensities were calculated as described elsewhere (Bakshi, et al., (1994) J. Pharmacol. Exp. Ther. 271:787-94) and ANOVAs with repeated measures performed.

[4] = mice, DOI 2.5 mg/kg i.p., 0.1-30 mg/kg, s.c., 10 min

T1 sequence (P28223 whole entry): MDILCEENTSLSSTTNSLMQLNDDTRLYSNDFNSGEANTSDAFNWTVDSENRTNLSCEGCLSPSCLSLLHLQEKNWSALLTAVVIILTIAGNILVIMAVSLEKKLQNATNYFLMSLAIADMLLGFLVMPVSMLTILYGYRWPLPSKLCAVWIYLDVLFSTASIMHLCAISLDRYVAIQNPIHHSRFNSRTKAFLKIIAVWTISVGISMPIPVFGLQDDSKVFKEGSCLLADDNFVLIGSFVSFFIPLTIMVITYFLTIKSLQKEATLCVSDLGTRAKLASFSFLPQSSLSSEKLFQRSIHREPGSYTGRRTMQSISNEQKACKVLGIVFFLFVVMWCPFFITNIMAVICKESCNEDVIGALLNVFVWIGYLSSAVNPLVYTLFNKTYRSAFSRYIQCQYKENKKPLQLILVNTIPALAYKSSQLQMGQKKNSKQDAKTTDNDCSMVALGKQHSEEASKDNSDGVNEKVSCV

For COc1ccc(CC(=O)N(Cc2ccc(Cl)cc2)C2CCN(C(C)C)CC2)cc1 [Compound 42ELH79, 2-(4-Methoxyphenyl)-N-(4-chlorbenzyl)-N-(1-isopropylpiperidin-4-yl) acetamide], the pIC50 (5-HT2A receptor; Table 4 of Example 137) was 8.5, the “Percent Efficacy” value (5-HT2A receptor; Table 4 of Example 137) was 110% and the “MED (minimum effective dose in vivo)” value [1] was “≦10 mg/kg”.

In the case of CCN1CCC(N(Cc2ccc(Cl)cc2)C(=O)Cc2ccc(OC)cc2)CC1 [Compound 42ELH85, 2-(4-Methoxyphenyl)-N-(4-chlorbenzyl)-N-(1-ethylpiperidin-4-yl)acetamide], the “Percent Efficacy” value (5-HT2A receptor; Table 4 of Example 137) is reported as 118% and the “MED (minimum effective dose in vivo)” value [1] is reported as “≦10 mg/kg”.

COc1ccc(CC(=O)N(Cc2ccc(Cl)cc2)C2CCN(C3CCCC3)CC2)cc1 [Compound 42ELH91, 2-(4-Methoxyphenyl)-N-(4-chlorbenzyl)-N-(1-cyclopentylpiperidin-4-yl)acetamide] was tested, and the “Percent Efficacy” value (5-HT2A receptor; Table 4 of Example 137) was 108% and the “MED (minimum effective dose in vivo)” value [1] was greater than 10 mg/kg.

With COc1ccc(CC(=O)N(Cc2ccc(C)cc2)C2CCN(C)CC2)cc1 [Compound 50ELH27, 2-(4-Methoxyphenyl)-N-(4-methylbenzyl)-N-(1-methylpiperidin-4-yl)acetamide] the “effect on hyperactivity induced by dizocilpine” value ([2]; 0.3-10 mg/kg, s.c., 10 min, dizocilpine 0.3 mg/kg i.p.) was “attenuated”, the “dose that reduced spontaneous locomotor activity” value ([2]; compound alone, s.c., only at the highest dose tested) was 30 mg/kg and the “minimum effective dose against dizocilpine” value ([2]; hyperactivity induced by dizocilpine 0.3 mg/kg i.p., s.c.) was 1 mg/kg. For the same compound, the “effect on startle magnitude” value ([3]; rats, 3-way repeated measures ANOVA) was “significant effect of pretreatment”, the “restoration of PPI in DOI-treated rats” value ([3]; rats, DOI 0.5 mg/kg s.c., AC-90179 s.c., risperidone 1.0 mg/kg i.p.) was “effective in restoring this disruption especially at the higher doses; also recorded: significant effects” and the “effect on PPI on its own” value ([3]; saline (vehicle)-treated rats, AC-90179 s.c., risperidone 1.0 mg/kg i.p.) was “did not affect PPI on its own; also recorded: no effect”. The “effect on DOI-induced head-twitches” value [1, 4] was “dose-related decrease”, the “minimum effective dose against DOI-induced head-twitches” value [1, 4] was 1 mg/kg and the “effect on head twitch behavior at higher doses” value ([1]; mice, DOI 2.5 mg/kg i.p., higher doses, s.c.) was “completely eliminating head twitch behavior”. The “MED (minimum effective dose in vivo)” value [1] was 1 mg/kg.

For Cc1ccc(CN(C(=O)Cc2ccc(N(C)C)cc2)C2CCN(C)CC2)cc1 [Compound 57MBT70-6D, N-((4-methylphenyl)methyl)-N-(1-methylpiperidin-4-yl)-2-(4-(N,N-dimethylamino)phenyl)acetamide hydrochloride], the IC50 (5-HT2A receptor; Table 4 of Example 137) was 10 nM.

C[C@]12N[C@H](Cc3ccccc31)c1ccccc12 [Dizocilpine, dizocilpine, reference compound] was tested, and the “distance traveled (average)” value ([2]; 0.3 mg/kg) was 2625 cm.

For C[C@H](N)Cc1ccccc1 [d-amphetamine, reference compound], the “distance traveled (average)” value ([2]; 3.0 mg/kg) was 3367 cm.

In the case of “N-(2-Phenylethyl)-N-(piperidin-4-yl)-4-methoxyphenylmethylacetamide [Compound 26HCH80-2]”, the “pIC50 (average)” value (5-HT2A receptor; Table 1) is reported as 7.78 and the “Efficacy (average)” value (5-HT2A receptor; percent maximal repression compared to ritanserin, Table 1) is reported as 89%.
